Laboratory results as given in US20230330093A1, “APPLICATION OF NITROGEN-CONTAINING SATURATED HETEROCYCLIC COMPOUND” (SHANGHAI PHARMACEUTICALS HOLDING CO., LTD., priority 2020, published 2023).
Several values for one entry are separate records, joined by “and”; a condition that tells them apart may be missing. Identical values can stand only once.

Test system: rhesus monkeys with spontaneous chronic kidney disease
Experiment: Effect on serum K+, 8-week administration
Conditions: 5mg/kg (n = 6)
Experimental: In the trial, animals were brought in three stages. In the first stage, there were two groups: 3 animals (No. 257, No. 4721, No. 287) in a group with 5 mg/kg of the malate of compound of formula I, and 2 animals (No. 1029, No. 4713) in the placebo group. […] In the third stage, there were two groups: 5 animals (No. 4829, No. 6501, No. 287, No. 4721, No. 2091) in a group with 2 mg/kg of the malate of compound of formula I, and 5 animals (No. 1567, No. 4861, No. 5453, No. 6653, No. 5073) in a group with 1 mg/kg of the malate of compound of formula I.
Serum potassium, twice before administration, once every 2 weeks during the administration period;
Blood biochemical and urine index detection equipment: Roche cobas6000 analyzer series C501 module detection. ELISA kit was used for NT-proBNP test.

K^+ (2 weeks, Mean ± SD): 4.98 ± 0.73 mmol/L | K^+ (4 weeks, Mean ± SD): 4.49 ± 0.62 mmol/L | K^+ (6 weeks, Mean ± SD): 4.57 ± 0.66 mmol/L | K^+ (8 weeks, Mean ± SD): 4.49 ± 0.70 mmol/L | K^+ (Baseline 1, Mean ± SD): 4.89 ± 0.35 mmol/L | K^+ (Baseline 2, Mean ± SD): 4.81 ± 0.48 mmol/L
Compound: COC(=O)NCCCn1nc(C(C)N(C(=O)C2CNCCO2)C2CC2)c2ccc(C)nc21.O=C(O)CC(O)C(=O)O (stereo not drawn) [malate of compound of Formula 1]
K^+ (2 weeks, individual animals): 4.91 mmol/L and 4.55 mmol/L and 6.07 mmol/L and 5.37 mmol/L and 5.05 mmol/L and 3.93 mmol/L | K^+ (4 weeks, individual animals): 4.33 mmol/L and 4.55 mmol/L and 5.46 mmol/L and 4.50 mmol/L and 4.61 mmol/L and 3.51 mmol/L | K^+ (6 weeks, individual animals): 4.53 mmol/L and 4.16 mmol/L and 4.77 mmol/L and 4.76 mmol/L and 5.58 mmol/L and 3.60 mmol/L | K^+ (8 weeks, individual animals): 4.26 mmol/L and 4.64 mmol/L and 4.49 mmol/L and 5.28 mmol/L and 5.00 mmol/L and 3.26 mmol/L | K^+ (Baseline 1, individual animals): 4.78 mmol/L and 4.54 mmol/L and 4.93 mmol/L and 5.41 mmol/L and 5.16 mmol/L and 4.52 mmol/L | K^+ (Baseline 2, individual animals): 5.43 mmol/L and 4.74 mmol/L and 4.03 mmol/L and 5.20 mmol/L and 4.75 mmol/L and 4.72 mmol/L
